Earlier results, collected in patent publication US20130172299A1, “Combination Therapy for Treatment of Bone and Mineral Disorders for Patients with Impaired Renal Function” (priority 2008, published 2013).

Columns and labels:
[1] = hemodialysis patients

Row | Compound | inflammation in ESRD (300 mg po qd for 14 days) | serious adverse events (300 mg po qd, 15 patients treated for 14 days) | LDL cholesterol [1] | serum HDL cholesterol [1] | serum calcium levels [1] | serum phosphorous levels [1]
1 | Cc1c(O)cc2c(c1C)O[C@](C)(CCC[C@H](C)CCC[C@H](C)CCCC(C)C)CC2 [Gamma tocopherol] | efficacy in reducing inflammation | no serious adverse events were reported | – | – | – | –
2 | NC(=O)c1cccnc1 [nicotinamide] | – | – | decreased | increased | did not change | significantly reduced
